Values after ≈ are worked out from the molar mass of the structure shown.
Experiments:
[1] = biological target: T1, Dipeptidase 1 (Sus scrofa) (UniProt P22412); test: (§1) Susceptibility to DHP-I (swine kidney enzyme); format: tissue-based
T1 sequence (whole entry): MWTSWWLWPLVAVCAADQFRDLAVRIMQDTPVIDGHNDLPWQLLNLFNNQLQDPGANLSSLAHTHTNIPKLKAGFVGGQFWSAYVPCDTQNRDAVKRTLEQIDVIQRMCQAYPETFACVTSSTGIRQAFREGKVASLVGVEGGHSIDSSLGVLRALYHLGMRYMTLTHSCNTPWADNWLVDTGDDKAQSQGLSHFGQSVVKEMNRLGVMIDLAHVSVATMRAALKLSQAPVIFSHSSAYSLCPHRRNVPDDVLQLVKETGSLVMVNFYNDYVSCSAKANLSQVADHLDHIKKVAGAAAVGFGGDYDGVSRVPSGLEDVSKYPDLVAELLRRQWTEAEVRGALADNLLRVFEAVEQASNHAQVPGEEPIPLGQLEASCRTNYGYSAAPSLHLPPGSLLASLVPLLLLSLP

Staphylococcus aureus [2] = test: Inhibitory activity against methicillin-sensitive staphylococcus aureus(MSSA); format: functional
MecA = biological target: T2, MecA (Staphylococcus aureus, UniProt Q7DHH4); test: Binding affinity towards Penicillin-binding protein 2a from homogeneous MRSA COL strain using [3H]-radioligand
T2 sequence (Q7DHH4 whole entry): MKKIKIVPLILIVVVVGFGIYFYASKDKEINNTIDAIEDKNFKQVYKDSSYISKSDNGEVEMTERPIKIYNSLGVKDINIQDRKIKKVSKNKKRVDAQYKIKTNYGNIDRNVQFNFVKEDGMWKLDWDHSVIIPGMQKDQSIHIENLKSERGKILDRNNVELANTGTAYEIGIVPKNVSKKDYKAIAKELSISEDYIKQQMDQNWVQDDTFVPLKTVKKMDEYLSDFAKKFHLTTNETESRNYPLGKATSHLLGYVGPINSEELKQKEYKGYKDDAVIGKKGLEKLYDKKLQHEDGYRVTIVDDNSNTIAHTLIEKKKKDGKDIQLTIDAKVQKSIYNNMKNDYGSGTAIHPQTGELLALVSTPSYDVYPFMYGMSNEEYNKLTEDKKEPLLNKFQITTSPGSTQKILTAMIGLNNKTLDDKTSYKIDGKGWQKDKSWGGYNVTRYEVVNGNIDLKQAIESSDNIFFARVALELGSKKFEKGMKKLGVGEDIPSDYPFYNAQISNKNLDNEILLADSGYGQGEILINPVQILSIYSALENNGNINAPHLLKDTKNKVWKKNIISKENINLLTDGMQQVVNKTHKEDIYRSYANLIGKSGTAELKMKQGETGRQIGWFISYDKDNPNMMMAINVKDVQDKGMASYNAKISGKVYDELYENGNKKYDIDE

Enterococcus [3] = test: Inhibitory activity against enterococcus evaluated by computational method; format: functional
Staphylococcus aureus [4] = test: Inhibitory activity against methicillin-resistant staphylococcus aureus(MRSA); format: functional
Bacteria [5] = test: The gram-negative activity is derived from eleven strains selected from seven enteric genera; format: functional
Sus scrofa = species: Sus scrofa; test: as §1; format: tissue-based
Staphylococcus aureus [6] = test: Inhibitory activity against methicillin-resistant staphylococcus aureus(MRSA)evaluated manually; format: functional
Enterococcus [7] = test: Inhibitory activity against enterococcus evaluated manually; format: functional
Staphylococcus aureus [8] = test: Inhibitory activity against methicillin-resistant staphylococcus aureus(MRSA)evaluated by computational method; format: functional
Staphylococcus aureus [9] = test: Inhibitory activity against methicillin-sensitive staphylococcus aureus(MSSA) evaluated by computational method; format: functional
Staphylococcus [10] = test: Inhibitory activity against methicillin-resistant coagulase negative staphylococci (MRCNS)evaluated by computational method; format: functional
Staphylococcus aureus [11] = test: Inhibitory activity against methicillin-sensitive staphylococcus aureus(MSSA) evaluated manually; format: functional
Staphylococcus [12] = test: Inhibitory activity against methicillin-resistant coagulase negative staphylococci (MRCNS)evaluated manually; format: functional
Staphylococcus [13] = test: Inhibitory activity against methicillin-resistant coagulase negative staphylococci (MRCNS) evaluated by computational method; format: functional
Staphylococcus [14] = test: (§2) Inhibitory activity against methicillin-resistant coagulase negative staphylococci (MRCNS) evaluated manually; format: functional
Staphylococcus aureus [15] = test: Inhibitory activity against methicillin-resistant staphylococcus aureus(MRSA) evaluated manually; format: functional
Staphylococcus aureus [16] = test: Inhibitory activity against methicillin-resistant staphylococcus aureus(MRSA) evaluated by computational method; format: functional
Bacteria [17] = test: Inhibitory activity against gram negative bacteria evaluated manually; format: functional
Staphylococcus sp. = test: as §2; format: functional

Row | SMILES | Susceptibility [1] | MIC (Staphylococcus aureus [2]) [mg/L] | IC50 (MecA) [µM] | MIC (Enterococcus [3]) [mg/L] | MIC (Staphylococcus aureus [4]) [mg/L] | MIC (Bacteria [5]; Bacteria, read-out: MIC) [mg/L] | other results
1 | C[C@@H](O)[C@H]1C(=O)N2C(C(=O)[O-])=C(Sc3cc4ccccc4s3)[C@H](C)[C@H]12.[Na+] | 0.4 | 0.04 | 41.5 | 5.7 | 3.9 | 9.8 | 
2 | C[C@@H](O)[C@H]1C(=O)N2C(C(=O)[O-])=C(Sc3ncc4ccccc4n3)[C@H](C)[C@H]12.[Na+] | 0.3 | 0.02 | 30.2 | 8 | 4 | 15 | 
3 | C[C@@H](O)[C@H]1C(=O)N2C(C(=O)[O-])=C(Sc3nc4cc(CO)ccc4s3)[C@H](C)[C@H]12.[Na+] | 0.3 | 0.07 | 2.8 | 3.8 | 1 | 8 | 
4 | C[C@@H](O)[C@H]1C(=O)N2C(C(=O)[O-])=C(Sc3nc4c(C[n+]5ccn(C)c5)csc4s3)C[C@H]12 |  | 0.02 (≈ 0.0432 µM) | 0.649 | 2 (≈ 4.32 µM) | 1 (≈ 2.16 µM) | 5.5 (≈ 11.9 µM) | Susceptibility (Sus scrofa): 0.2
5 | C[C@@H](O)[C@H]1C(=O)N2C(C(=O)[O-])=C(Sc3nc4ccc(N)cc4s3)[C@H](C)[C@H]12.[Na+] |  | 0.09 | 40.6 | 5.9 | 9 | 18.3 | 
6 | C[C@@H](O)[C@H]1C(=O)N2C(C(=O)[O-])=C(Sc3nc4ccc(C#N)cc4s3)[C@H](C)[C@H]12.[Na+] | 0.1 | 0.04 | 3.78 | 4.5 | 0.9 | 8.8 | 
7 | C[C@@H](O)[C@H]1C(=O)N2C(C(=O)[O-])=C(Sc3nc4cc(Cl)ccc4s3)C[C@H]12.[Na+] | 1.2 | 0.02 | 3.82 | 0.7 | 1.8 | 3.8 | 
8 | C[C@@H](O)[C@H]1C(=O)N2C(C(=O)[O-])=C(Sc3nc4cc(C(F)(F)F)ccc4s3)[C@H](C)[C@H]12.[Na+] |  | 0.08 | 1.93 | 2.9 | 1.2 | 9.9 | 
9 | C[C@@H](O)[C@H]1C(=O)N2C(C(=O)[O-])=C(Sc3nc4ccccc4o3)[C@H](C)[C@H]12.[Na+] |  | 0.23 | 112 | 8.9 | 12.1 | 27.8 | 
10 | C[C@@H](O)[C@H]1C(=O)N2C(C(=O)[O-])=C(Sc3nccs3)[C@H](C)[C@H]12.[Na+] | 0.4 | 0.17 | 33.6 | 7.1 | 18.2 | 2.5 | 
11 | C[C@@H](O)[C@H]1C(=O)N2C(C(=O)[O-])=C(Sc3nc4ccc([N+](=O)[O-])cc4s3)[C@H](C)[C@H]12.[Na+] | 0.2 | 0.05 | 1.35 | 4.9 | 1.1 | 22.4 | 
12 | C[C@@H](O)[C@H]1C(=O)N2C(C(=O)[O-])=C(Sc3ccc4ccccc4n3)[C@H](C)[C@H]12.[Na+] |  | 0.05 | 71.4 | 4.9 | 6.3 | 10.1 | 
13 | C[C@@H](O)[C@H]1C(=O)N2C(C(=O)[O-])=C(Sc3ncc(-c4ccccc4)s3)[C@H](C)[C@H]12.[Na+] | 0.5 | 0.03 | 236 | 8 | 32 | 16 | 
14 | C[C@@H](O)[C@H]1C(=O)N2C(C(=O)[O-])=C(Sc3nc(-c4ccccc4)cs3)C[C@H]12.[Na+] | 3.6 | 0.03 |  | 2.1 | 11.3 | 14 | 
15 | CCOc1ccc2nc(SC3=C(C(=O)[O-])N4C(=O)[C@H]([C@@H](C)O)[C@H]4[C@H]3C)sc2c1.[Na+] | 0.3 | 0.1 | 10.6 | 6 | 4 | 31.6 | 
16 | C[C@@H](O)[C@H]1C(=O)N2C(C(=O)[O-])=C(Sc3nc4ccccc4s3)[C@H](C)[C@H]12.[Na+] | 0.2 |  | 5.02 | 2.1 |  | 5.6 | MIC (Staphylococcus aureus [6]): 1 mg/L; MIC (Enterococcus [7]): 4 mg/L; MIC (Staphylococcus aureus [8]): 1.7 mg/L; MIC (Staphylococcus aureus [9]): 0.06 mg/L; MIC (Staphylococcus [10]): 1.6 mg/L; MIC (Staphylococcus aureus [11]): 0.02 mg/L; MIC (Staphylococcus [12]): 4 mg/L; MIC (Bacteria [5]): 9.7 mg/L
17 | C[C@@H](O)[C@H]1C(=O)N2C(C(=O)[O-])=C(Sc3nc4ccccc4s3)C[C@H]12.[Na+] | 1.7 | 0.07 | 8.06 | 1.7 | 1.9 | 3.7 | 
18 | C[C@@H](O)[C@H]1C(=O)N2C(C(=O)[O-])=C(Sc3nc(-c4ccccc4)cs3)[C@H](C)[C@H]12.[Na+] | 0.4 | 0.05 | 23.8 | 2.6 | 1.9 | 6.6 | 
19 | C[C@@H](O)[C@H]1C(=O)N2C(C(=O)O)=C(SCCNC=N)C[C@H]12 [IMIPENEM ANHYDROUS] |  |  |  | 1.1 (≈ 3.67 µM) |  | 0.6 (≈ 2 µM) | Susceptibility (Sus scrofa): 1; MIC (Enterococcus [7]): 1.3 mg/L (≈ 4.34 µM); MIC (Staphylococcus [13]): 63.7 mg/L (≈ 213 µM); MIC (Staphylococcus [14]): > 64 mg/L; MIC (Staphylococcus aureus [15]): 64 mg/L (≈ 214 µM); MIC (Staphylococcus aureus [16]): 35.9 mg/L (≈ 120 µM); MIC (Staphylococcus aureus [9]): 0.02 mg/L (≈ 0.0668 µM); MIC (Staphylococcus aureus [11]): 0.02 mg/L (≈ 0.0668 µM); MIC (Bacteria [17]): 0.4 mg/L (≈ 1.34 µM)
20 | C[C@@H](O)[C@H]1C(=O)N2C(C(=O)O)=C(SCCN=CN)C[C@H]12 [IMIPENEM ANHYDROUS] |  |  | 428 |  |  |  | 
21 | C[C@@H](O)[C@H]1C(=O)N2C(C(=O)[O-])=C(Sc3nc4c(CO)csc4s3)[C@H](C)[C@H]12.[Na+] | 0.5 | 0.02 | 2.76 | 4 | 2 | 9.7 | 
22 | C[C@@H](O)[C@H]1C(=O)N2C(C(=O)[O-])=C(Sc3nc4ccc(Cl)cc4s3)[C@H](C)[C@H]12.[Na+] |  | 0.1 | 2.08 | 4 | 2.3 | 17.6 | 
23 | C[C@@H](O)[C@H]1C(=O)N2C(C(=O)[O-])=C(Sc3nc4cc(Cl)ccc4s3)[C@H](C)[C@H]12.[Na+] | 0.2 | 0.02 | 6.24 | 2.7 | 0.8 | 4.8 | 
24 | COC(=O)c1cc2sc(SC3=C(C(=O)[O-])N4C(=O)[C@H]([C@@H](C)O)[C@H]4[C@H]3C)nc2o1.[Na+] |  | 0.02 | 3.36 | 4 | 4 | 12.4 | 
25 | COC(=O)c1csc2sc(SC3=C(C(=O)[O-])N4C(=O)[C@H]([C@@H](C)O)[C@H]4[C@H]3C)nc12.[Na+] | 0.3 | 0.04 | 2.59 | 4 | 2 | 21.9 | 
26 | C[C@@H](O)[C@H]1C(=O)N2C(C(=O)[O-])=C(Sc3nc4cc(C[n+]5ccn(C)c5)ccc4s3)C[C@H]12 |  |  | 0.876 | 1.2 (≈ 2.63 µM) |  | 3.4 (≈ 7.45 µM) | Susceptibility (Sus scrofa): 0.2; MIC (Enterococcus [7]): 1 mg/L (≈ 2.19 µM); MIC (Staphylococcus [13]): 0.8 mg/L (≈ 1.75 µM); MIC (Staphylococcus sp.): 4 mg/L (≈ 8.76 µM); MIC (Staphylococcus aureus [15]): 2 mg/L (≈ 4.38 µM); MIC (Staphylococcus aureus [16]): 1 mg/L (≈ 2.19 µM); MIC (Staphylococcus aureus [9]): 0.03 mg/L (≈ 0.0657 µM); MIC (Staphylococcus aureus [11]): 0.02 mg/L (≈ 0.0438 µM); MIC (Bacteria [17]): 5.2 mg/L (≈ 11.4 µM)
